Source: ChEMBL document CHEMBL4483862, “Open-source discovery of chemical leads for next-generation chemoprotective antimalarials” (2018)

Test system: Plasmodium berghei
Experiment: Luciferase/luciferin-expressing antifolate-resistant parasites were used to infect a culture of HepG2 cells that were pre-incubated with compounds. Infected hepatocytes emit light due to the luciferase reaction. Assay results are presented as the percent inhibition of light emission compared to control. […]
Type: functional
Conditions: sporozoite; for IC90: read-out: LUCIFERASE INFECTION ASSAY - IC90
[1] = read-out: LUCIFERASE INFECTION ASSAY - IC50

## FC(F)(F)c1ccc(N/N=C/c2sc(N3CCOCC3)nc2-c2ccccc2)c(Cl)c1
FFLUC_HILL_SLOPE 1.6, FFLUC_R_SQUARED 0.81, read-out: LUCIFERASE INFECTION ASSAY - IC50
  IC50: > 10 µM
  IC90: > 10 µM

## CC(C)(C)C(=O)ONC(N)=CS(=O)(=O)c1ccc(Cl)cc1
[1]
  IC50: > 9.92 µM
  IC90: > 9.92 µM

## CCOC(=O)c1c(NC(=O)CNCc2ccccn2)sc(CC)c1C
HEPG2TOX_HILL_SLOPE 2.14, HEPG2TOX_R_SQUARED 0.831, PBLUC_HILL_SLOPE 2.51, PBLUC_R_SQUARED 0.552, read-out: LUCIFERASE INFECTION ASSAY - IC50
  IC50: 2.7 µM
  IC90: 6.49 µM

## Cc1cc(=O)nc(N/N=C/c2cc(C)n(-c3ccccc3Cl)c2C)[nH]1
PBLUC_HILL_SLOPE 2.91, PBLUC_R_SQUARED 0.512, read-out: LUCIFERASE INFECTION ASSAY - IC50
  IC50: 9.21 µM
  IC90: > 10 µM

## O=C(Nc1cccc(Cl)c1)OCc1ccccc1F
[1]
  IC50: > 11.8 µM
  IC90: > 11.8 µM

## C=CCn1c(-c2c(C)oc3ccccc23)cs/c1=N\S(=O)(=O)c1cccs1
[1]
  IC50: > 10 µM
  IC90: > 10 µM

## CN(C(=O)c1cc(-c2ccccc2OCc2ccccc2)ncn1)c1ccccc1
HEPG2TOX_HILL_SLOPE 0.0237, HEPG2TOX_R_SQUARED 0.016, PBLUC_HILL_SLOPE 4.42, PBLUC_R_SQUARED 0.717, read-out: LUCIFERASE INFECTION ASSAY - IC50
  IC50: 3.04 µM
  IC90: 5 µM

## COC(=O)c1c(NC(=O)c2ccco2)c2cc(NC3CCN(C(C)C)CC3)cnc2n1CCC(C)C
PBLUC_HILL_SLOPE 4.28, PBLUC_R_SQUARED 0.61, read-out: LUCIFERASE INFECTION ASSAY - IC50
  IC50: 4.64 µM
  IC90: > 6.66 µM

## CNC(=O)c1cccc(NC(=O)c2cc(-c3ccco3)nc3c2cnn3C(C)C)c1
[1]
  IC50: > 10 µM
  IC90: > 10 µM

## COc1cc(C)c(CN2CCC(c3nc4ccccc4s3)CC2)cc1OC
HEPG2TOX_HILL_SLOPE 1.28, HEPG2TOX_R_SQUARED 0.688, PBLUC_HILL_SLOPE 2.8, PBLUC_R_SQUARED 0.756, read-out: LUCIFERASE INFECTION ASSAY - IC50
  IC50: 2.5 µM
  IC90: 5.49 µM

## Cc1nc(SCC(=O)N2c3ccccc3Sc3ccccc32)n(CC(C)C)c1C
[1]
  IC50: > 10 µM
  IC90: > 10 µM

## CC(=O)NCCc1ccc(C(=O)Cn2cnc3ccc(Cl)cc3c2=O)s1
[1]
  IC50: > 10 µM
  IC90: > 10 µM

## CN(CC(=O)Nc1ccc(Cl)c(S(=O)(=O)N2CCOCC2)c1)C(=O)/C=C/c1cccs1
HEPG2TOX_HILL_SLOPE 0.594, HEPG2TOX_R_SQUARED 0.62, read-out: LUCIFERASE INFECTION ASSAY - IC50
  IC50: > 10 µM
  IC90: > 10 µM

## CN(C)c1cccc(-c2cnc3sc(NCc4ccc(F)cc4)nn23)c1
FFLUC_HILL_SLOPE 4.01, FFLUC_R_SQUARED 0.615, PBLUC_HILL_SLOPE 7.46, PBLUC_R_SQUARED 0.677, read-out: LUCIFERASE INFECTION ASSAY - IC50
  IC50: 7.83 µM
  IC90: > 8.98 µM

## Cc1sc(-c2ccco2)nc1C(=O)Nn1cnc2ccccc21
[1]
  IC50: > 10 µM
  IC90: > 10 µM

## COc1ccc(-c2ccc3c(c2)COC2(CCN(C(=O)c4ccc(F)cc4F)CC2)O3)cc1OC
[1]
  IC50: > 6.85 µM
  IC90: > 6.85 µM

## CN(C)C(=O)Oc1ccc(Br)cc1C(=O)Nc1ccc(F)c(Cl)c1
[1]
  IC50: > 7.94 µM
  IC90: > 7.94 µM

## N#CCCC(C#N)(c1ccc(F)cc1)c1cccc(F)c1C#N (stereo unspecified)
[1]
  IC50: > 10.7 µM
  IC90: > 10.7 µM

## COc1ccc(-c2nn(-c3ccccc3)cc2CN(Cc2ccccc2)C(=O)c2ccco2)cc1
[1]
  IC50: > 10 µM
  IC90: > 10 µM

## CN(C)c1cccc(-c2cnc3cnc(-c4ccc(C(=O)NC5CC5)cc4)cn23)c1
PBLUC_HILL_SLOPE 2.95, PBLUC_R_SQUARED 0.0505, read-out: LUCIFERASE INFECTION ASSAY - IC50
  IC50: 7.62 µM
  IC90: > 8.3 µM

## CCCNC(=O)C1(C)CCN(Cc2ccc3ccccc3n2)C1 (stereo unspecified)
[1]
  IC50: > 10.6 µM
  IC90: > 10.6 µM

## O=C(c1ccc(-n2cnc3ccccc3c2=O)cc1)N1CCN(S(=O)(=O)c2ccc3ccccc3c2)CC1
PBLUC_HILL_SLOPE 18.8, PBLUC_R_SQUARED 0.0296, read-out: LUCIFERASE INFECTION ASSAY - IC50
  IC50: 9.48 µM
  IC90: > 10 µM

## Cc1ccc(-c2nn(-c3ccccc3)cc2/C=C/C(=O)NC2CCN(Cc3ccccc3)CC2)cc1
PBLUC_HILL_SLOPE 22.5, 12.9, PBLUC_R_SQUARED 0.0358, 0.549, read-out: LUCIFERASE INFECTION ASSAY - IC50
  IC50: 8.22 µM
  IC90: 9.38 µM

## N#C/C(=C\c1ccccc1Cl)c1nc2ccccc2[nH]1
[1]
  IC50: > 11.8 µM
  IC90: > 11.8 µM

## CCN(CC)Cc1nc(N2CCN(Cc3c(C)nc4ccc(C)cn34)CC2)c2c(C)c(C)sc2n1
PBLUC_HILL_SLOPE 1.28, PBLUC_R_SQUARED 0.354, read-out: LUCIFERASE INFECTION ASSAY - IC50
  IC50: 5.6 µM
  IC90: > 10 µM

## NC(=O)c1ccc(-c2cc(-c3ccc(F)cc3)cnc2N)cc1
HEPG2TOX_HILL_SLOPE 8.28, HEPG2TOX_R_SQUARED 0.58, PBLUC_HILL_SLOPE 436, PBLUC_R_SQUARED 0.522, read-out: LUCIFERASE INFECTION ASSAY - IC50
  IC50: 2.32 µM
  IC90: 2.33 µM

## N#CC(=N)C(C#N)NCc1ccccc1Sc1ccc(Cl)cc1 (stereo unspecified)
[1]
  IC50: > 9.68 µM
  IC90: > 9.68 µM

## CC(C)N1CCN(c2ccc(-c3cn4c(-c5ccccc5)cnc4cn3)cc2)CC1
PBLUC_HILL_SLOPE 2.04, PBLUC_R_SQUARED 0.328, read-out: LUCIFERASE INFECTION ASSAY - IC50
  IC50: 5.96 µM
  IC90: > 8.3 µM

## CSc1sc(C(=O)NC(=O)Nc2cccc(C(F)(F)F)c2)cc1C#N
FFLUC_HILL_SLOPE 12.6, FFLUC_R_SQUARED 0.0423, read-out: LUCIFERASE INFECTION ASSAY - IC50
  IC50: > 8.56 µM
  IC90: > 8.56 µM

## Cc1nn(C)c2nc(-c3cccs3)cc(C(=O)Nc3ccccc3C(=O)NCC3CCCO3)c12 (stereo unspecified)
PBLUC_HILL_SLOPE 3.11, PBLUC_R_SQUARED 0.411, read-out: LUCIFERASE INFECTION ASSAY - IC50
  IC50: 5.11 µM
  IC90: > 10 µM

## COc1cc(OC)cc(C(=O)Nc2nc(C(N)C3CCCCC3)cs2)c1 (stereo unspecified)
[1]
  IC50: 5.25 µM
  IC90: 5.41 µM

## N#Cc1ncn(-c2nc(-c3ccccn3)nc3sc(-c4ccccc4)cc23)n1
HEPG2TOX_HILL_SLOPE 1.72, HEPG2TOX_R_SQUARED 0.411, PBLUC_HILL_SLOPE 3.83, PBLUC_R_SQUARED 0.832, read-out: LUCIFERASE INFECTION ASSAY - IC50
  IC50: 4.46 µM
  IC90: 7.91 µM

## COC(=O)c1c(-c2c(Cl)cccc2Cl)noc1CC=Nc1ccc(C(=O)O)cc1
HEPG2TOX_HILL_SLOPE 0.693, HEPG2TOX_R_SQUARED 0.602, read-out: LUCIFERASE INFECTION ASSAY - IC50
  IC50: > 7.62 µM
  IC90: > 7.62 µM

## CN1C(=O)N(CN2CCN(c3ccccn3)CC2)C(=O)C12CCCCC2
[1]
  IC50: > 10 µM
  IC90: > 10 µM

## Cc1ccc2nc(NC(=O)COCc3ccccc3)c(C(=O)NC3CCCCC3)n2c1
[1]
  IC50: > 7.85 µM
  IC90: > 7.85 µM

## CNc1snc(C)c1C(=O)N(C)Cc1ccc(C(C)C)cc1
HEPG2TOX_HILL_SLOPE 3.83, HEPG2TOX_R_SQUARED 0.742, PBLUC_HILL_SLOPE 1.58, PBLUC_R_SQUARED 0.865, read-out: LUCIFERASE INFECTION ASSAY - IC50
  IC50: 0.0158 µM
  IC90: 0.0634 µM

## CCc1ccccc1Nc1nc(N)nc(CN2CCN(S(=O)(=O)Cc3ccccc3)CC2)n1
[1]
  IC50: > 10 µM
  IC90: > 10 µM

## CCn1nc(C(=O)NCc2ccc(OC)cc2)c2c1CCN(C(=O)c1cc(C)n[nH]1)C2
PBLUC_HILL_SLOPE 2.57, PBLUC_R_SQUARED 0.68, read-out: LUCIFERASE INFECTION ASSAY - IC50
  IC50: 1.57 µM
  IC90: 3.69 µM

## Cn1ccnc1Sc1ncnc2sccc12
PBLUC_HILL_SLOPE 5.04, PBLUC_R_SQUARED 0.521, read-out: LUCIFERASE INFECTION ASSAY - IC50
  IC50: 2.53 µM
  IC90: 3.92 µM

## Cc1nccn1Cc1cccc(CNS(=O)(=O)c2ccc3ccccc3c2)c1
[1]
  IC50: > 10 µM
  IC90: > 10 µM

## COc1cc(/C=C/C(=O)OC(C(=O)c2c[nH]c3ccccc23)c2ccccc2)cc(OC)c1OC (stereo unspecified)
[1]
  IC50: > 10 µM
  IC90: > 10 µM

## Oc1ccc(Br)cc1/C=C/c1ccc2cccc(O)c2n1
HEPG2TOX_HILL_SLOPE 9.84, HEPG2TOX_R_SQUARED 0.0138, PBLUC_HILL_SLOPE 10.3, PBLUC_R_SQUARED 0.574, read-out: LUCIFERASE INFECTION ASSAY - IC50
  IC50: 8.32 µM
  IC90: > 9.64 µM

## Cc1ccc(NC(=O)c2cnn(C(C)(C)C)c2C)cc1F
FFLUC_HILL_SLOPE 1.31, FFLUC_R_SQUARED 0.708, PBLUC_HILL_SLOPE 0.501, PBLUC_R_SQUARED 0.734, read-out: LUCIFERASE INFECTION ASSAY - IC50
  IC50: 0.0753 µM
  IC90: 6.02 µM

## COc1ccc(OCc2cc(C(=O)NCc3ccccc3)c(C)o2)cc1
FFLUC_HILL_SLOPE 16.5, FFLUC_R_SQUARED 0.199, HEPG2TOX_HILL_SLOPE 9.38, HEPG2TOX_R_SQUARED 0.316, read-out: LUCIFERASE INFECTION ASSAY - IC50
  IC50: > 10 µM
  IC90: > 10 µM

## Cc1nn2c(=O)cc(Cn3ccnc3)nc2s1
[1]
  IC50: > 10 µM
  IC90: > 10 µM

## Cc1nc2sccn2c1C(=O)NCc1ccccc1Oc1ccccc1
[1]
  IC50: > 9.08 µM
  IC90: > 9.08 µM

## Cc1nc(-c2ccc3c(c2)CCN3C(=O)C2(C)Cc3ccccc3C(=O)O2)cs1 (stereo unspecified)
PBLUC_HILL_SLOPE 2.39, PBLUC_R_SQUARED 0.602, read-out: LUCIFERASE INFECTION ASSAY - IC50
  IC50: 4.47 µM
  IC90: > 10 µM

## Cc1ccc(-c2nn(-c3ncc(Cl)cc3Cl)c(=O)c3ccccc23)cc1
HEPG2TOX_HILL_SLOPE 2.58, HEPG2TOX_R_SQUARED 0.712, read-out: LUCIFERASE INFECTION ASSAY - IC50
  IC50: > 10 µM
  IC90: > 10 µM
